Tests used:
ARTD1/PARP1 = ARTD1/PARP1 (Homo sapiens, UniProt P09874); test: ARTD profiling, ARTD1
ARTD12/PARP12 = target: T1, ARTD12/PARP12 (Homo sapiens, UniProt Q9H0J9); test: ARTD profiling, ARTD12
T1 sequence (Q9H0J9 484-698 limits assumed): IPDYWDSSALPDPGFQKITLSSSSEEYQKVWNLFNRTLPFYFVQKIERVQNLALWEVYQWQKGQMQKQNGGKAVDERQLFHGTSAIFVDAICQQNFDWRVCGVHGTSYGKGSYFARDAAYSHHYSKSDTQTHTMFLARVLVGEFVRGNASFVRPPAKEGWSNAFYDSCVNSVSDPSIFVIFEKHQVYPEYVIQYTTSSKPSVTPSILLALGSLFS

ARTD3/PARP3 = target: T2, ARTD3/PARP3 (Homo sapiens, UniProt Q9Y6F1); test: ARTD profiling, ARTD3; assay type: biochemical; conditions: NAD+ 500 nM
T2 sequence (Q9Y6F1 1-533): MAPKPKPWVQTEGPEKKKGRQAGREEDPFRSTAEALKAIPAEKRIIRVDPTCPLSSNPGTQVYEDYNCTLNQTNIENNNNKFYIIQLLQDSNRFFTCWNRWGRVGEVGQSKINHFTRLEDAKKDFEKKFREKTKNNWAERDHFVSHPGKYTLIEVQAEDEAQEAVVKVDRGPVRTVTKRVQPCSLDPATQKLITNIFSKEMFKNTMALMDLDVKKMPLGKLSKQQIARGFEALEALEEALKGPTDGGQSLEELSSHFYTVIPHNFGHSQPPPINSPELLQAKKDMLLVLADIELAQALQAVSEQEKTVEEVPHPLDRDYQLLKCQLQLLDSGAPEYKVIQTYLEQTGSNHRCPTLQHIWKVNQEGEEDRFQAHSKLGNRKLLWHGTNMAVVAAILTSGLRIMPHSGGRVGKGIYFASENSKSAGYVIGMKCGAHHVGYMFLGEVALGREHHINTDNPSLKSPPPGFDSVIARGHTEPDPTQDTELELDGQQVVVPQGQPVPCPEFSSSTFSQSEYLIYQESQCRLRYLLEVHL
Protocol: (§1) Protein (nM) NAD+ (nM) Incubation Buffer
(§2) Kinase [ATP] Substrate Incubation Reaction buffer

ARTD4/PARP4 = target: T3, ARTD4/PARP4 (Homo sapiens, UniProt Q9UKK3); test: ARTD profiling, ARTD4
T3 sequence (Q9UKK3 369-573 limits assumed): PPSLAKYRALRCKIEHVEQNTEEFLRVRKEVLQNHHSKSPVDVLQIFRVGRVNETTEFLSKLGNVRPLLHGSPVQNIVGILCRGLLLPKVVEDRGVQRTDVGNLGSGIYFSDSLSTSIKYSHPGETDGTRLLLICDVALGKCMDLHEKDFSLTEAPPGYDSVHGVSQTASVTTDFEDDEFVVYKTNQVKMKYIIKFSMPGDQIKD

ARTD2/PARP2 = ARTD2/PARP2 (Homo sapiens, UniProt Q9UGN5); test: ARTD profiling, ARTD2
Sequence of ARTD2/PARP2 (Q9UGN5 whole entry): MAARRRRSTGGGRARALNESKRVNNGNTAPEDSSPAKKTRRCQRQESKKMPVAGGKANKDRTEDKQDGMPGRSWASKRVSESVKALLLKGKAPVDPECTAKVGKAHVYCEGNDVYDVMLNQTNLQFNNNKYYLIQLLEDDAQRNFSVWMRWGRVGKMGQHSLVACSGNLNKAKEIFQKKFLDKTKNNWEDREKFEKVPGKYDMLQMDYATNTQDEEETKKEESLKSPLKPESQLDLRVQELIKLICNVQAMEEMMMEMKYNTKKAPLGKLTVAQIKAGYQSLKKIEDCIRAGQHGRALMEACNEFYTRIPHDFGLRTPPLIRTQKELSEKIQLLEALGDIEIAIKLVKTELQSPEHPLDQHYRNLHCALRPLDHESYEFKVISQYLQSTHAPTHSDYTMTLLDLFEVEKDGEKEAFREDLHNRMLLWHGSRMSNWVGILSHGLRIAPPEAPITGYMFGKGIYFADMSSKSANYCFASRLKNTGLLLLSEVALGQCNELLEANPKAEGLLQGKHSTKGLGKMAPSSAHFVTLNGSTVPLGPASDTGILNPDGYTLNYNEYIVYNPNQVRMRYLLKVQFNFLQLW

ARTD10/PARP10 = target: T4, ARTD10/PARP10 (Homo sapiens, UniProt Q53GL7); test: ARTD profiling, ARTD10
T4 sequence (Q53GL7 806-1025 limits assumed): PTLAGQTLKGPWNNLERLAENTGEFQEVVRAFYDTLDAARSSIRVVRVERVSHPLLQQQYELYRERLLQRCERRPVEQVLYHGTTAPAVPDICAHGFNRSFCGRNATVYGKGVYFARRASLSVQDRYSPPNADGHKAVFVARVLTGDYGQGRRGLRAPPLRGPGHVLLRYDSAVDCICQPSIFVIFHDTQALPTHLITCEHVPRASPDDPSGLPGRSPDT

TNKS2 = TNKS2 (Homo sapiens, UniProt Q9H2K2); test: NAD+ quantification activity assay, TNKS2; assay type: biochemical; conditions: TNKS2 IC50, NAD+ 500 nM
Sequence of TNKS2 (Q9H2K2 959-1164): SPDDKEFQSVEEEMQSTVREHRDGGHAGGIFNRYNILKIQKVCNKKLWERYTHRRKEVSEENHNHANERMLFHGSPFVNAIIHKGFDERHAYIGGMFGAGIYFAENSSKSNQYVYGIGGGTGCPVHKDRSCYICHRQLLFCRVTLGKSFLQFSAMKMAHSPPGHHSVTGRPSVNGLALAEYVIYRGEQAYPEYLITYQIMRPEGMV
Protocol: The activity assay used to measure the potency of the compounds against TNKS2 is based on the quantification of NAD^+[38]. The reactions were carried out in 96-well plate (Greiner bio-one, U-shaped) and the conditions were the same as reported earlier (Table S5)[24].
The compounds were stored in 100% DMSO at −20 °C. All the compounds were diluted in the TNKS2 assay buffer (50 mM Bis-Tris Propane, 0.5 mM TCEP, 0.01% Triton-100x). Control reactions were used to exclude the effect of compound fluorescence and quenching from the calculations. […] The pIC50 values were calculated and fitted with nonlinear regression using 4-parameters with GraphPad Prism (version 5.0 for windows).
as §1, §2

ARTD15/PARP16 = target: T5, ARTD15/PARP16 (Homo sapiens, UniProt Q8N5Y8); test: ARTD profiling, ARTD15
T5 sequence (Q8N5Y8 1-322): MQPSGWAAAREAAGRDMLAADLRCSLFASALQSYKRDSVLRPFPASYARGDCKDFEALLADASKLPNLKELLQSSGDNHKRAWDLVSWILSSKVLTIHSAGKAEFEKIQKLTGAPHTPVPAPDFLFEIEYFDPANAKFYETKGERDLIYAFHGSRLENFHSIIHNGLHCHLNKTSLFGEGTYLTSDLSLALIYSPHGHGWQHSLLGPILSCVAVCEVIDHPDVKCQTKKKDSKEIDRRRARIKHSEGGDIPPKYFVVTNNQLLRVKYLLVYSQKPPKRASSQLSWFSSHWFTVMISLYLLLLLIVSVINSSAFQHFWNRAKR

ARTD8/PARP14 = ARTD8/PARP14 (Homo sapiens, UniProt Q460N5); test: ARTD profiling, ARTD8
Sequence of ARTD8/PARP14 (Q460N5 whole entry): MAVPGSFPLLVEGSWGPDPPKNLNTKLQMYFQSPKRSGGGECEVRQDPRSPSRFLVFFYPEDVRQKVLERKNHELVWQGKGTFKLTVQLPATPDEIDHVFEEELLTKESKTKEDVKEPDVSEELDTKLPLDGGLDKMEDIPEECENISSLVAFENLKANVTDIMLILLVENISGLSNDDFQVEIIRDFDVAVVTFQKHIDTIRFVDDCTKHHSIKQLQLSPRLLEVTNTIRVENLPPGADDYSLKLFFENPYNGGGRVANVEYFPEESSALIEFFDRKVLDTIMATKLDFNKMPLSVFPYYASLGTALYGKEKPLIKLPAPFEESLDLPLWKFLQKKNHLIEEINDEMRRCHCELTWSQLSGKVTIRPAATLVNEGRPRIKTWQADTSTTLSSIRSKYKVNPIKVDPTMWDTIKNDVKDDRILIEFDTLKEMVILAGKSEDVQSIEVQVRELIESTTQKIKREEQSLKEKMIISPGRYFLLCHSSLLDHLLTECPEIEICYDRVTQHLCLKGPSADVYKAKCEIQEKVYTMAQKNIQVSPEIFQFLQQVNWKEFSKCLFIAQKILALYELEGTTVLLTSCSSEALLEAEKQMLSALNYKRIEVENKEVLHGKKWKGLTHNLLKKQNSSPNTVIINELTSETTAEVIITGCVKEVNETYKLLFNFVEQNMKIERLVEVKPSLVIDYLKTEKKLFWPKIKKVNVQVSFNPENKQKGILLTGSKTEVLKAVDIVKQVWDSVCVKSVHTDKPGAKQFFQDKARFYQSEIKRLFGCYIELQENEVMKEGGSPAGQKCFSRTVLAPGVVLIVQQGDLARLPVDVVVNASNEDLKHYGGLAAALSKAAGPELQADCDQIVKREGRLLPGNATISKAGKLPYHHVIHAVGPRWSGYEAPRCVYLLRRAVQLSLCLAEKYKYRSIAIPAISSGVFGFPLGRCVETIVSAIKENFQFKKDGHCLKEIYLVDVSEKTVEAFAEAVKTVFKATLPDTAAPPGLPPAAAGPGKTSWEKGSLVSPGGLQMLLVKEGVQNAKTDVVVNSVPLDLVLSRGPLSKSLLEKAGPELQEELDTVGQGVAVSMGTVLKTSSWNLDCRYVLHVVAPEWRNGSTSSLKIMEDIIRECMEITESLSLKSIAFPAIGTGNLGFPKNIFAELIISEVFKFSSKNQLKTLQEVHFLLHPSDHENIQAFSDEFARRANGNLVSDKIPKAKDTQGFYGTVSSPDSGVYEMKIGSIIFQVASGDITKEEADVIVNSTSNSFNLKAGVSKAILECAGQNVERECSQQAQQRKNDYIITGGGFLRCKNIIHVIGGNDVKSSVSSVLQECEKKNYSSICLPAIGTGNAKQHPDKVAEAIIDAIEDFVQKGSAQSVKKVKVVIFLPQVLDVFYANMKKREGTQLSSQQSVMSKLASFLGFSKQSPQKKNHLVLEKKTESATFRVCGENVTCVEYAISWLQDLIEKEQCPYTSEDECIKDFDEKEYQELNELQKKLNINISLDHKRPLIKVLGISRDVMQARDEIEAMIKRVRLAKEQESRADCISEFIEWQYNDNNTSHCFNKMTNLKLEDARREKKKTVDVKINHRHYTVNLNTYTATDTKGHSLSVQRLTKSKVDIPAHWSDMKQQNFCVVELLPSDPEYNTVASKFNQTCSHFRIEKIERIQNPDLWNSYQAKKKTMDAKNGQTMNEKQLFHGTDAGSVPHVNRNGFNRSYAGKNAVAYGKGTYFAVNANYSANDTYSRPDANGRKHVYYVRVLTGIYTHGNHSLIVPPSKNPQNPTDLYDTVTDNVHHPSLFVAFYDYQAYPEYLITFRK

[1] = test system: Wnt/β-catenin signaling (TCF/LEF Reporter HEK293 Cell Line); test: Wnt signaling TCF/LEF reporter assay in HEK293 cells; assay type: cell-based, human; conditions: Homo sapiens; for inhibition at 2 µM: HEK293, 2 µM compound, Wnt-reporter cell assay, read-out: Wnt (Inh.%, 2 µM)
Protocol: The Wnt assay was performed using a procedure modified from the BPS Bioscience protocol. Details are given in the Supplementary Methods. […]
The Wnt Signaling Pathway TCF/LEF Reporter HEK293 Cell Line (BPS Bioscience, catalog […]
Reporter HEK293 cells were grown at 37 °C with 5% CO2 using Dulbecco's Modified Eagle's Medium (DMEM, Sigma), supplemented with 10% of fetal bovine serum (Lonza), 1% non-essential amino acid (Sigma), 1X of penicillin and streptomycin (Sigma), and 400 µg/ml of Geneticin (Roche). Wnt-3a and L cells (ATCC) were cultured in Dulbecco’s modified Eagle’s medium supplemented with 10% fetal bovine serum, penicillin and streptomycin at 37 °C in a 5%
CO2. Wnt3a and control conditioned medium preparation has been described previously1. The Wnt assay was performed using a procedure modified from the BPS Bioscience protocol. 30,000 HEK293 cells/well in 40 µl of serum-free DMEM were plated on 96-well plate (white wells, clear […]
bottom, PerkinElmer). 10 µl of 50 mM LiCl in serum-free DMEM with 5x concentration of DMSO or tankyrase inhibitors was added. After 16 hours of incubation, 25 µl of Wnt3a or control conditioned medium supplemented with DMSO or tankyrase inhibitors was added on cells and cells were incubated for additional 24 hours. After the second incubation, the 96-well plates were balanced in room temperature for 30 minutes. Wnt3a induced luciferase activity was determined using ONE-Glo Luciferase Assay System (Promega) according to manufacturer’s protocol. […]
Difference Fourier method deriving the starting phases from 3U9H. The refinement of the structures was done with REFMAC5.5,6 Final manual building, analysis and visualization of the structures were made with Coot7 and PyMOL (www.pymol.org). All chemical structures were drawn with Marvin (Marvin 5.7.0 2011, ChemAxon, http://www.chemaxon.com). The docking studies were performed using GOLD software.8

ARTD7/PARP15 = target: T6, ARTD7/PARP15 (Homo sapiens, UniProt Q460N3); test: ARTD profiling, ARTD7
T6 sequence (Q460N3 482-678 limits assumed): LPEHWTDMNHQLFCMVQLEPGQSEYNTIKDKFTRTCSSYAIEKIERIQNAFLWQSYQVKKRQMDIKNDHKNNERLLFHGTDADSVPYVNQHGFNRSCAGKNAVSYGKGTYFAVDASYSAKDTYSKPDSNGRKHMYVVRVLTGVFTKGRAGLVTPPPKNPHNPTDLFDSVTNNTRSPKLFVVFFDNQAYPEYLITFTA

ARTD5/TNKS1 = ARTD5/TNKS1 (Homo sapiens, UniProt O95271); test: NAD+ quantification activity assay, TNKS1; assay type: biochemical; conditions: NAD+ 500 nM
Sequence of ARTD5/TNKS1 (O95271 1112-1317): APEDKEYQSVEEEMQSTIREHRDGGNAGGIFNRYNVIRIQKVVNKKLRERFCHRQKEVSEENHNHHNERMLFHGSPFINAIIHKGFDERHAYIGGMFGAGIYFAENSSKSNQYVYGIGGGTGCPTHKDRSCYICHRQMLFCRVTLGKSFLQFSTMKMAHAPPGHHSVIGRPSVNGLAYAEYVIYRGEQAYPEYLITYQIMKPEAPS
Protocol: as §1, §2

[2] = parameters: method as in PMID 24130191; conditions: previous study; read-out: IC50 in cell-based assay; cited from earlier work

Sequence of ARTD1/PARP1 (P09874 whole entry): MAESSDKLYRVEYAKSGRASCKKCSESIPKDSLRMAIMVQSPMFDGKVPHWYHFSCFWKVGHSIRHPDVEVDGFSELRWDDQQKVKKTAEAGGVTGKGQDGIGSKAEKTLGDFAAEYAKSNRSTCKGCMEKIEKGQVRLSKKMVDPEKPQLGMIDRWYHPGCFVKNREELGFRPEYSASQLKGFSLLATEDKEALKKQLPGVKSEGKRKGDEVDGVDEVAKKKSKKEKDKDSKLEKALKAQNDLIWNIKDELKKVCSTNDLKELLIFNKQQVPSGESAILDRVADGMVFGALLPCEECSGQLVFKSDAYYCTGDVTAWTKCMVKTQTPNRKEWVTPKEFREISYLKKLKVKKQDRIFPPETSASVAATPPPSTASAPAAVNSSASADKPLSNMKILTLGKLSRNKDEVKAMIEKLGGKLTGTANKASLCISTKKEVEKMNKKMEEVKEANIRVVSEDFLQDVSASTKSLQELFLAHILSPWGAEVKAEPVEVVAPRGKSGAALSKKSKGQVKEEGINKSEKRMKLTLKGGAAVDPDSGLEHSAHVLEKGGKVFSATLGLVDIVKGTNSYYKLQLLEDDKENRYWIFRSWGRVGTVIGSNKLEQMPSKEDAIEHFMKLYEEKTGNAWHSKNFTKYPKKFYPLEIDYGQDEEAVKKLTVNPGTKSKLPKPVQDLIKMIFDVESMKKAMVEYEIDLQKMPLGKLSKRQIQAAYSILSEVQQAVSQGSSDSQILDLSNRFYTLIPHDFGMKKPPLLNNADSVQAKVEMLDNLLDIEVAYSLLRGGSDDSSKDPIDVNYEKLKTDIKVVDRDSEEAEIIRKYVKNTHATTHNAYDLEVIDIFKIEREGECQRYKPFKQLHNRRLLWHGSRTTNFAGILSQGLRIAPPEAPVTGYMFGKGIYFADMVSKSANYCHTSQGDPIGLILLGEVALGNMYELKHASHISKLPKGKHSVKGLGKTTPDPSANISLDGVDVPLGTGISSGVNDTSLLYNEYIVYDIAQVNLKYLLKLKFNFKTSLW

Row | IC50 (ARTD1/PARP1) | IC50 (ARTD12/PARP12) | IC50 (ARTD3/PARP3) | IC50 (ARTD4/PARP4) | IC50 (ARTD2/PARP2) | IC50 (ARTD10/PARP10) | IC50 (TNKS2) | IC50 (ARTD15/PARP16) | IC50 (ARTD8/PARP14) | IC50 (ARTD7/PARP15) | IC50 (ARTD5/TNKS1) | SMILES | inhibition at 1 µM ([1]; HEK293, 1 µM compound, TCF/LEF reporter HEK293) | inhibition at 2 µM [1] | IC50 [2]
1 | 1700 nM | > 10000 nM | 3800 nM | 2000 nM | 860 nM | 3100 nM | 16 nM | > 10000 nM | 3200 nM | > 10000 nM | 77 nM | CN(CCO)c1ccc(-c2nc3ccccc3c(=O)[nH]2)cc1 [Compound 33] | 20% | – | –
2 | 1000 nM | – | – | – | 870 nM | – | 10 nM | – | – | – | 10 nM | CC1(c2ccc(-c3nc4ccccc4c(=O)[nH]3)cc2)CNC(=O)N1 (centres unmarked) [Compound 9] | – | 72% | –
3 | 374 nM | – | – | – | 340 nM | – | 3.3 nM | – | – | – | 5.9 nM | CC1(c2ccc(-c3nc4ccccc4c(=O)[nH]3)cc2)NC(=O)NC1=O (centres unmarked) [Compound 2] | – | 68% | ~1000 nM

— paper PMC5785997, “2-Phenylquinazolinones as dual-activity tankyrase-kinase inhibitors” (Scientific Reports, 2018)
